Measured values from the NIST ThermoML archive (doi:10.1021/acs.jced.5b00197).

What was measured:
[1] = xn = mol fraction of the nth substance listed; details: 96.64 kPa, Liquid, mechanical oscillator
[2] = refractive index (Na D-line) (dimensionless); xn = mol fraction of the nth substance listed; details: 94.64 kPa, Liquid, Standard Abbe refractometry

CC(=O)O [acetic acid] + Cc1ccccc1
Details | mass density, 293.15 K [kg/m3] | mass density, 298.15 K [kg/m3] | mass density, 303.15 K [kg/m3] | refractive index, 293.15 K | refractive index, 298.15 K | refractive index, 303.15 K
[1], x1 = 0.146 | 878.94 | 873.65 | 868.47 | – | – | –
[1], x1 = 0.277 | 894.11 | 888.81 | 883.38 | – | – | –
[1], x1 = 0.397 | 907.9 | 902.58 | 897.1 | – | – | –
[1], x1 = 0.506 | 924.08 | 918.49 | 912.96 | – | – | –
[1], x1 = 0.605 | 940.43 | 934.75 | 929.15 | – | – | –
[1], x1 = 0.697 | 960 | 954.12 | 948.31 | – | – | –
[1], x1 = 0.782 | 978.4 | 972.48 | 966.6 | – | – | –
[1], x1 = 0.859 | 1000.2 | 994.34 | 988.34 | – | – | –
[1], x1 = 0.897 | 1017.74 | 1011.75 | 1005.81 | – | – | –
[1], x1 = 0.932 | 1027.84 | 1021.82 | 1015.9 | – | – | –
[1], x1 = 0.967 | 1038.11 | 1032.17 | 1026.28 | – | – | –
[1], x1 = 1 | 1049.63 | 1043.57 | 1037.64 | – | – | –
[2], x1 = 0.146 | – | – | – | 1.48448 | 1.48174 | 1.47906
[2], x1 = 0.277 | – | – | – | 1.47082 | 1.4681 | 1.46535
[2], x1 = 0.397 | – | – | – | 1.45878 | 1.45618 | 1.45352
[2], x1 = 0.506 | – | – | – | 1.44593 | 1.44332 | 1.44065
[2], x1 = 0.605 | – | – | – | 1.43372 | 1.43116 | 1.42842
[2], x1 = 0.697 | – | – | – | 1.4212 | 1.41872 | 1.41617
[2], x1 = 0.782 | – | – | – | 1.40891 | 1.4065 | 1.40452
[2], x1 = 0.859 | – | – | – | 1.39681 | 1.39453 | 1.39228
[2], x1 = 0.897 | – | – | – | 1.38731 | 1.38466 | 1.38303
[2], x1 = 0.932 | – | – | – | 1.38235 | 1.38029 | 1.3782
[2], x1 = 0.967 | – | – | – | 1.37721 | 1.3752 | 1.37315
[2], x1 = 1 | – | – | – | 1.37224 | 1.37012 | 1.36809

CC(=O)O [acetic acid] + O
Details | mass density, 293.15 K [kg/m3] | mass density, 298.15 K [kg/m3] | mass density, 303.15 K [kg/m3] | refractive index, 293.15 K | refractive index, 298.15 K | refractive index, 303.15 K
[1], x1 = 0.0322 | 1013.1 | 1010.07 | 1007.37 | – | – | –
[1], x1 = 0.0697 | 1029.11 | 1024.31 | 1021.16 | – | – | –
[1], x1 = 0.114 | 1040.03 | 1036.43 | 1032.93 | – | – | –
[1], x1 = 0.167 | 1049.79 | 1045.44 | 1039.59 | – | – | –
[1], x1 = 0.231 | 1057.69 | 1053.12 | 1048.56 | – | – | –
[1], x1 = 0.31 | 1064.29 | 1059.45 | 1054.48 | – | – | –
[1], x1 = 0.412 | 1068.57 | 1063.31 | 1058.16 | – | – | –
[1], x1 = 0.545 | 1068.93 | 1063.47 | 1058.01 | – | – | –
[1], x1 = 0.629 | 1067.42 | 1061.15 | 1057.17 | – | – | –
[1], x1 = 0.729 | 1062.82 | 1058.08 | 1053.26 | – | – | –
[1], x1 = 0.85 | 1059.62 | 1053.73 | 1047.95 | – | – | –
[1], x1 = 1 | 1049.63 | 1043.57 | 1037.64 | – | – | –
[2], x1 = 0.0322 | – | – | – | 1.34079 | 1.34007 | 1.33927
[2], x1 = 0.0697 | – | – | – | 1.34792 | 1.34695 | 1.34593
[2], x1 = 0.114 | – | – | – | 1.35489 | 1.35372 | 1.3525
[2], x1 = 0.167 | – | – | – | 1.3609 | 1.35957 | 1.35822
[2], x1 = 0.231 | – | – | – | 1.36583 | 1.36436 | 1.36288
[2], x1 = 0.31 | – | – | – | 1.37062 | 1.369 | 1.36736
[2], x1 = 0.412 | – | – | – | 1.37406 | 1.37233 | 1.37058
[2], x1 = 0.545 | – | – | – | 1.37703 | 1.37519 | 1.37331
[2], x1 = 0.629 | – | – | – | 1.37724 | 1.37545 | 1.37349
[2], x1 = 0.729 | – | – | – | 1.37721 | 1.3753 | 1.37335
[2], x1 = 0.85 | – | – | – | 1.37559 | 1.37359 | 1.3716
[2], x1 = 1 | – | – | – | 1.37224 | 1.37012 | 1.36809
